Experimental data reported in patent US20250017888A1, “COMPOUNDS FOR TREATING DISEASES ASSOCIATED WITH HYALURONAN OVERPRODUCTION” (THE ROYAL VETERINARY COLLEGE, priority 2021, published 2025).

Tests used:
[1] = test system: Str/ort mice; test: Health evaluation of treated Str/ort mice; format: in vivo, mouse; details: 50 mg/kg intraperitoneally, 18 weeks, vs vehicle
Method: (§1) At 10-13 weeks of age, 21 male Str/ort mice (n=7/group) were assigned randomly to vehicle, hylin-betaine and xantho-betaine groups and were treated intraperitoneally 18 weeks with either vehicle (5% DMSO in 95% peanut oil), 50 mg/kg compound of Example 1 (“hylin-betaine”) in 5% DMSO and 95% peanut oil or 50 mg/kg compound of Example 2 (“xantho-betaine”) in 5% DMSO and 95% peanut oil.
To assess the health status after hylin-betaine and xantho-betaine treatment, mice were monitored for their health status. The monitoring criteria were body surface temperature, body weight, gait, coat condition, skin tenting for dehydration, hunching, activity, breathing rate and general body condition. Mice were scored blind for each one of these criteria from 1-5 except for body weight and temperature.

[2] = test system: Str/ort mice; test: Gait analysis (treadmill, Digigait) in Str/ort mice; format: in vivo, mouse
Method: as §1
Gait was monitored using a treadmill-based video system (DigigaitTM system) in three treatment groups of mice at three time point, week 1, week 9 and week 18 of treatment. The number of mice was 7, 7 and 5 in groups 1, 2 and 3, respectively.
[…] gait descriptors were used for the analyses. Thirty-four descriptors were obtained directly from the software of the system in the 4 limbs (LF: left front; RF: right front; LR: left rear; RR: right rear). All the others (143) were calculated indexes from gait measurements including swing, stance, brake, propel and stride times, stride length, frequency and coefficient of variation, paw area and paw angle and the variability of those two traits, the coefficient of variation of swing duration mid line distance, and minimum and maximum dAdT. The ratios of times were calculated in the 4 limbs: Brake, Propel, and Swing times relative to Stance and Stride times, Stance/Swing and Stance/Stride. In addition, the following additional indexes were considered:
In order to investigate whether there were differences among groups for each descriptor at the three experimental dates, an ANOVA was performed using data corresponding to each descriptor and date. Bonferroni correction was applied to counteract the problem of multiple comparisons.
A t-test analysis was also performed comparing only two groups at a time. In order to assess whether differences between both groups could be due to differences in gait change regarding the initial condition (at 2014/12/23), two sets of analyses were performed for data at 2015/02/18 and 2015/04/14, respectively by using Logistic Regression Analysis. The model included two independent variables: the initial value for each descriptor and the difference between the corresponding value at 2015/02/18 (or 2015/04/14) and the initial value. Bonferroni correction was also applied.

[3] = Alamar blue toxicity assay (FIG. 1); format: cell-based; details: below concentrations of 100 μM
Method: The hyaluronan synthase activity (Prehm, P. and Schumacher, U., Biochem. Pharmacol. 2004, 68, 1401-1410), the cytotoxicity of the drugs (O'Brien, J. et al., Eur. J. Biochem. 2000, 267, 5421-5426), proteoglycan synthesis rate, hyaluronan (Prehm, P. J. Rheumatol., 2005, 32, 690-696) and proteoglycan (Bjornsson, S. Anal. Biochem. 1993, 210, 282-291) were determined as described. The effect of the prenylflavonoids on the MRP5 export rate was measured with fluorescein diacetate as described (Schulz, T., Schumacher, U., and Prehm, P., J Biol. Chem., 2007, 282, 20999-21004). The determination of the IC50 values on the phosphodiesterase 5 was performed according to the instructions of BPS Bioscience. The culture of bovine chondrocytes in alginate beads and of explants of bovine cartilage was described previously (Deiters, B. and Prehm, P. Arthritis Res. Ther., 2008, 10, R8; Prehm, P. J. Rheumatol. 2005, 32, 690-696). Osteoarthritic reactions were induced in chondrocytes growing in alginate beads by incubation with medium containing 10 ng/ml of II-17 for 6 days, and in cartilage explants with 10 ng/ml of II-17 and 5 ng/ml of II-1α. The supernatants were withdrawn and stored at −20° C. for later analysis. The explants were weighed and extracted with 1 ml of 4 M guanidinium-HCl for 72 hours at 4° C. The proteoglycan concentrations were determined in the extracts.
The toxicity was determined by the Alamar blue assay.

[4] = 50 mg/kg intraperitoneally, 18 weeks

- health status: weight, hunching, gait, activity, vocalisation and respiration scores, coat condition [1]: does not alter
SMILES: COc1cc(O)c(CC=C(C)C)c(O)c1C(=O)/C=C/c1ccc(OC(=O)C[N+](C)(C)C)cc1.[Cl-] [Xantho-betaine, (E)-2-(4-(3-(2,4-dihydroxy-6-methoxy-3-(3-methylbut-2-en-1-yl)phenyl)-3-oxoprop-1-en-1-yl)phenoxy)-N,N,N-trimethyl-2-oxoethanaminium chloride]
- mice that refused to run (drop-out) during the gait studies [2, 4]: 2 mice
- percentage of drop-out regarding the total number of runs [2, 4]: 13.3%
- distribution of gait data (runs) by treatment group ([2]; 2014 Dec. 23): 4
- distribution of gait data (runs) by treatment group ([2]; 2015 Apr. 14): 5
- distribution of gait data (runs) by treatment group ([2]; 2015 Feb. 18): 4
- effect on all gait descriptors ([2]; any time point, compared with vehicle group): no significant effect
- toxicity in Alamar blue assay [3]: not toxic
